Measurements taken from ChEMBL document CHEMBL4819050, “Discovery of a novel series of guanidinebenzoates as gut-restricted enteropeptidase and trypsin dual inhibitors for the treatment of metabolic syndrome” (Bioorg Med Chem Lett, 2021).

Assays:
[1] = molecular target: Enteropeptidase (Homo sapiens) (UniProt P98073); assay: Inhibition of full length recombinant human EP expressed in CHO cells assessed as protease activity using […] as substrate at 0.1 uM by fluorescence assay relative to control; parameters: scale not given: the % may be the effect or the level left
[2] = molecular target: Enteropeptidase (Homo sapiens) (UniProt P98073); assay: Inhibition of full length recombinant human EP expressed in CHO cells assessed as protease activity using […] as substrate at 10 uM by fluorescence assay relative to control; parameters: scale not given: the % may be the effect or the level left
[3] = species: Bos taurus; assay: Inhibition of bovine trypsin assessed as protease activity using D-CHA-AR-AMC as substrate at 1 uM by fluorescence assay relative to control; parameters: scale not given: the % may be the effect or the level left
[4] = Apparent permeability from apical to basolateral side in dog MDCK cells; format: ADME, cell-based, Canis lupus familiaris
[5] = species: Bos taurus; assay: Inhibition of bovine trypsin assessed as protease activity using D-CHA-AR-AMC as substrate at 10 uM by fluorescence assay relative to control; parameters: scale not given: the % may be the effect or the level left
[6] = molecular target: Enteropeptidase (Homo sapiens) (UniProt P98073); assay: Inhibition of full length recombinant human EP expressed in CHO cells assessed as protease activity using […] as substrate at 1 uM by fluorescence assay relative to control; parameters: scale not given: the % may be the effect or the level left
[7] = species: Bos taurus; assay: Inhibition of bovine trypsin assessed as protease activity using D-CHA-AR-AMC as substrate at 0.1 uM by fluorescence assay relative to control; parameters: scale not given: the % may be the effect or the level left
[8] = In vivo inhibition of EP in diet induced obese C57BL/6J mouse assessed as increase in fecal protein content at 30 mg/kg, po measured after 24 hrs relative to control; format: functional
[9] = species: Bos taurus; assay: Inhibition of bovine trypsin assessed as ratio of Kinact/Kiapp
[10] = molecular target: Enteropeptidase (Homo sapiens) (UniProt P98073); assay: Inhibition of full length recombinant human EP expressed in CHO cells assessed as ratio of Kinact/Kiapp; format: cell-based
[11] = Volume of distribution at steady state in C57BL/6J mouse at 5 mg/kg, iv; format: ADME, organism-based; details: in vivo, read-out: Vdss
[12] = AUClast in C57BL/6J mouse at 20 mg/kg, po; format: ADME, organism-based; parameters: route oral, time 0 - last, dose 20 mg/kg; details: in vivo
[13] = Clearance in C57BL/6J mouse at 5 mg/kg, iv; format: ADME, organism-based; details: in vivo
[14] = Cmax in C57BL/6J mouse at 20 mg/kg, po; format: ADME, organism-based; parameters: route oral, dose 20 mg/kg; details: in vivo
[15] = Oral bioavailability in C57BL/6J mouse at 20 mg/kg; format: ADME, organism-based; details: in vivo

Sequence of Enteropeptidase (Homo sapiens) (P98073 2-784 limits assumed): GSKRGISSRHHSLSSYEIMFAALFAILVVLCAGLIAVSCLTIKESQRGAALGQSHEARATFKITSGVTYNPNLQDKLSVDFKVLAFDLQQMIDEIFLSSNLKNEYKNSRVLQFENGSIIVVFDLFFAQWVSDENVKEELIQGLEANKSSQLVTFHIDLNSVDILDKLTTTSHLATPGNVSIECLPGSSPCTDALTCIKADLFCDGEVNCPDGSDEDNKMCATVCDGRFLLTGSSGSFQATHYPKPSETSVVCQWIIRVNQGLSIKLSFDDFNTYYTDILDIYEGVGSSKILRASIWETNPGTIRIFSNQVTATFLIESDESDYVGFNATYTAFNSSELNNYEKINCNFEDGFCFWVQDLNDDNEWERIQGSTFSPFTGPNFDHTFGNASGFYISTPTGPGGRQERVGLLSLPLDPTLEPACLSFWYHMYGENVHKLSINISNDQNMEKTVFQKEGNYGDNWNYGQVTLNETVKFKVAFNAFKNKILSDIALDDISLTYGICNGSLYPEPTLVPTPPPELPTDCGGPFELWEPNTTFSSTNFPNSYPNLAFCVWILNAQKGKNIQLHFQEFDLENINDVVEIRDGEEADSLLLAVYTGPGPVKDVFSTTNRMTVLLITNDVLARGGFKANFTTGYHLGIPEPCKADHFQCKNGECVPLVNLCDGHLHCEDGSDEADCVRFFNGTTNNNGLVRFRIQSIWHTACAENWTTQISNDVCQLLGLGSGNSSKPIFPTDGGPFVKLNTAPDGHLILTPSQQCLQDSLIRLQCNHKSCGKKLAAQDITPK
Sequence of Enteropeptidase (Homo sapiens) (P98073 785-1019 limits assumed): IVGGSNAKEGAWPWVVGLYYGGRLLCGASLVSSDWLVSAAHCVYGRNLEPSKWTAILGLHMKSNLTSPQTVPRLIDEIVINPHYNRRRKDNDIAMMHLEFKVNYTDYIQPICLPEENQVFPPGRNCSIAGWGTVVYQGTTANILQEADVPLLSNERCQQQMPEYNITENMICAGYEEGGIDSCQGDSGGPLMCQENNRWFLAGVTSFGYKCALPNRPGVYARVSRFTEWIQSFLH

Row | Activity [1] | Activity [2] | Activity [3] | Papp A→B [4] | Activity [5] | Activity [6] | Activity [7] | Ratio [9] | Ratio [10] | Vd [11] | AUC(0-t) [12] | clearance [13] | Cmax [14] | bioavailability [15] | Compound | fold change (FC) [8]
1 | 45.2% | 101% | 100% | 1.12 ×10⁻⁶ cm/s | 100% | 103% | 99.2% |  |  |  |  |  |  |  | N=C(N)Nc1ccc(C(=O)Oc2cc(CCC(=O)O)cn3ncnc23)cc1 | 
2 | 89.7% | 100% | 100% | 1.45 ×10⁻⁶ cm/s | 100% | 101% | 89.3% |  |  |  |  |  |  |  | N=C(N)Nc1ccc(C(=O)Oc2ccc(Cc3nn[nH]n3)n3ncnc23)cc1 | 
3 | 81.2% | 100% | 100% | 0.75 ×10⁻⁶ cm/s | 100% | 100% | 99.3% |  |  |  |  |  |  |  | N=C(N)Nc1ccc(C(=O)Oc2ccc(CC(=O)N[C@@H](CC(=O)O)C(=O)O)n3ccnc23)cc1 | 
4 | 48.1% | 100% | 100% | 1.03 ×10⁻⁶ cm/s | 100% | 101% | 99.7% |  |  |  |  |  |  |  | N=C(N)Nc1ccc(C(=O)Oc2ccc(CC(=O)NCC(=O)O)n3ncnc23)cc1 | 
5 | 20.9% | 101% | 99.9% | 1.26 ×10⁻⁶ cm/s | 100% | 72.9% | 89.6% |  |  |  |  |  |  |  | N=C(N)Nc1ccc(C(=O)Oc2ccc(CC(=O)N(CC(=O)O)CC(=O)O)n3ncnc23)cc1 | 1.5
6 | 96.8% | 100% | 100% |  | 100% | 100% | 87.6% | 69700 M⁻¹ s⁻¹ | 72800 M⁻¹ s⁻¹ |  |  |  |  |  | N=C(N)Nc1ccc(C(=O)Oc2ccc(CC(=O)O)n3ncnc23)cc1F | 
7 | 63% | 99.8% | 99.6% |  | 100% | 98.5% | 52.9% | 59400 M⁻¹ s⁻¹ | 52800 M⁻¹ s⁻¹ |  |  |  |  |  | C#CCOCCOCC#Cc1ccc(CC(=O)O)n2ncnc12 | 
8 | 4.14% | 98.9% | 16.6% |  | 88.7% | 38.5% | 2.31% |  |  |  |  |  |  |  | N=C(N)Nc1ccc(C(=O)Oc2ccc(CC(=O)O)n3ncnc23)c(C(F)(F)F)c1 | 
9 | 10.9% | 83.6% | 19.9% |  | 72.5% | 43.7% | 3.87% |  |  |  |  |  |  |  | N=C(N)NCc1ccc(C(=O)Oc2ccc(CC(=O)O)n3ncnc23)cc1 | 
10 | 35% | 100% | 100% |  | 100% | 101% | 99.8% |  |  |  |  |  |  |  | N=C(N)Nc1ccc(C(=O)Oc2ccc(CCC(=O)O)n3ncnc23)cc1 | 
11 | 37.8% | 100% | 100% | 1.09 ×10⁻⁶ cm/s | 100% | 100% | 94.1% |  |  |  |  |  |  |  | N=C(N)Nc1ccc(C(=O)Oc2ccc(CC(=O)NC(CC(=O)O)(CC(=O)O)CC(=O)O)n3ncnc23)cc1 | 1.7
12 | 18.2% | 101% | 56.6% |  | 99.8% | 84.4% | 6.34% |  |  |  |  |  |  |  | N=C(N)Nc1ccc(C(=O)Oc2ccc(CC(=O)O)n3ncnc23)cc1Cl | 
13 | 101% | 100% | 100% | 0.51 ×10⁻⁶ cm/s | 99.9% | 100% | 98.8% | 163000 M⁻¹ s⁻¹ | 181000 M⁻¹ s⁻¹ |  |  |  |  |  | CS(=O)(=O)NC(=O)Cc1ccc(OC(=O)c2ccc(NC(=N)N)cc2)c2ncnn12 | 
14 | 0.5% | 51.8% | 2.74% |  | 25.5% | 12.2% | 1.62% |  |  |  |  |  |  |  | N=C(NN)c1ccc(C(=O)Oc2ccc(CC(=O)O)n3ncnc23)cc1 | 
15 | -11.2% | 6.8% | 1.21% |  | 18.6% | -6.7% | -0.24% |  |  |  |  |  |  |  | N=C(N)Nc1cccc(C(=O)Oc2ccc(CC(=O)O)n3ncnc23)c1 | 
16 | 97.8% | 100% | 100% | 1.53 ×10⁻⁶ cm/s | 100% | 100% | 97.2% | 159000 M⁻¹ s⁻¹ | 130000 M⁻¹ s⁻¹ | 3.68 L/kg | 27 ng·h/mL | 192 mL/min/kg | 43 ng/mL | 1.6% | N=C(N)Nc1ccc(C(=O)Oc2ccc(CC(=O)O)n3ncnc23)cc1 | 2.4
17 | 101% | 100% | 101% | 1.48 ×10⁻⁶ cm/s | 101% | 100% | 96.3% | 111000 M⁻¹ s⁻¹ | 210000 M⁻¹ s⁻¹ |  |  |  |  |  | N=C(N)Nc1ccc(C(=O)Oc2ccc(CC(=O)O)n3ccnc23)cc1 | 
18 | 13.1% | 101% | 100% |  | 100% | 58.8% | 81.7% |  |  |  |  |  |  |  | N=C(N)Nc1ccc(C(=O)Oc2cc(CC(=O)O)cn3ncnc23)cc1 | 
19 | 1.35% | 12.6% | 0.59% |  | 9.42% | 1.32% | -1.72% |  |  |  |  |  |  |  | C/N=C(\NC)Nc1ccc(C(=O)Oc2ccc(CC(=O)O)n3ncnc23)cc1 | 
20 | 2.43% | 34% | -3.33% |  | 18.2% | 9.05% | -3.11% |  |  |  |  |  |  |  | CONC(=N)c1ccc(C(=O)Oc2ccc(CC(=O)O)n3ncnc23)cc1 | 
21 | 20.8% | 101% | 72.4% |  | 99.9% | 87.1% | 13.8% |  |  |  |  |  |  |  | COc1cc(C(=O)Oc2ccc(CC(=O)O)n3ncnc23)ccc1NC(=N)N | 
22 | 48.3% | 101% | 100% | 0.56 ×10⁻⁶ cm/s | 100% | 101% | 98.3% |  |  |  |  |  |  |  | N=C(N)Nc1ccc(C(=O)Oc2ccc(CC(=O)N[C@@H](CC(=O)O)C(=O)O)n3ncnc23)cc1 | 2.4
23 | -10.7% | -10.8% | -0.45% |  | 10.1% | -10.1% | -8.04% |  |  |  |  |  |  |  | C/C(=N\O)Nc1ccc(C(=O)Oc2ccc(CC(=O)O)n3ncnc23)cc1 | 
24 | 27.6% | 100% | 100% |  | 100% | 95.1% | 61% |  | 24400 M⁻¹ s⁻¹ |  |  |  |  |  | N=C(N)Nc1ccc(C(=O)Oc2ccc(CCC(=O)O)n3ccnc23)cc1 | 
25 | 40.5% | 99.3% | 89.2% |  | 98.9% | 93.8% | 31.4% |  |  |  |  |  |  |  | CN(C(=N)N)c1ccc(C(=O)Oc2ccc(CC(=O)O)n3ncnc23)cc1 | 
